Measurements taken from patent US7531320B2, “Modulation of β-catenin/TCF-activated transcription” (priority 2003, dated 2009).

Experiments:
full-length mouse CBP = target: T1, full-length mouse CBP (Mus musculus, UniProt P45481); test: 14C-labeled COMPOUND 1 incorporation into SW480 nuclear lysates transfected with CBP; type: binding; settings: 100 μM and 200 μM cold COMPOUND 1, dose dependent
T1 construct: vectors expressing full-length Xenopus laevis β-catenin (2.2 μg) or full-length mouse CBP (1.1 μg); expressed in transfected cells; host or cells: SW480
Method: FIG. 1. COMPOUND 1 inhibits β-catenin/TCF transcription. • A(i) and A(ii). Structures of COMPOUND 1, COMPOUND 2, COMPOUND 3, COMPOUND 4, and COMPOUND 5. • B(i) and B(ii). […] SW480 cells (10^5), (FIG. 1B(i)), were transfected with β-catenin/TCF luciferase construct. Cells were treated with COMPOUND 1 (1-64 μM). 24 hours post treatment lysates were prepared and subjected to dual luciferase assay. The data is represented in different form in FIG. 1B(ii). • C. COMPOUND 1 has no effect on NFAT reporter construct. Stably transfected Jurkat cells, right panel, with an NFAT reporter construct, were stimulated with PMA (10 ng/ml)/lonomycin (1 μg/ml), and treated with COMPOUND 1 (0.781-50 μM). 24 hours post treatment lysates were prepared and subjected to dual luciferase assay. All experiments were performed in duplicate and the values plotted as means +/−standard deviation. • D. CBP is the molecular target of COMPOUND 1. […] The lysates were desalted using G-25 1 cc columns (Pharmacia) to remove the unbound ^14C-labeled-COMPOUND 1, and ^14C-labeled-COMPOUND 1 incorporation was measured.
A series of further investigations were performed to further validate that COMPOUND 1 binds CBP. […] Cell lysates were then desalted using G-25 columns to remove the unbound ^14C-labeled COMPOUND 1 and the incorporation of radioactivity was measured.

p300/β-catenin complex = target: T2, p300/β-catenin complex (Homo sapiens, UniProt Q09472); test: Co-immunoprecipitation of β-catenin with p300 in SW480 cells; type: cell-based; settings: p300 (1-111), (1-211), (1-351), 50 μM COMPOUND 1
T2 construct: endogenous in cells; host or cells: SW480
Method: FIG. 3. COMPOUND 1 disrupts the β-catenin/CBP complex but not the p300/β-catenin complex. • A. Full-length Xenopus laevis β-catenin (1.1, 2.2, and 3.3 μg) or murine CBP (0.14, 0.28, 0.55, 1.1, and 2.2 μg) plasmids were cotransfected in SW480 cells along with the β-catenin/TCF (1.1 μg) reporter gene construct. Empty pcDNA3 vector was used to equalize the amount of DNA used in each reaction. Dual luciferase assays were performed 24 hours post COMPOUND 1 treatment. All experiments were performed in duplicate and values plotted as means +/−standard deviation. • B. COMPOUND 1 competes with β-catenin for CBP. SW480 cells were treated with 5 or 10 μM of COMPOUND 1 or control (0.5% DMSO). 24 hours post treatment, lysates were incubated with beads coated with either control the antibody, or anti-CBP, or anti-p300 antibodies. Co-immunoprecipitated proteins were subjected to gel electrophoresis and immunoblotting using anti-β-catenin antibodies. The arrows point to the immunoprecipitated β-catenin (doublets). • C. CBP (1-111) is the minimal region of interaction with β-catenin. SW480 cells transfected with a CBP deletion series were subjected to immunoprecipitation using anti-β-catenin antibodies coated on Protein A-agarose beads. The immune complexes were washed and subjected to gel electrophoresis followed by immunoblotting using anti-His antibodies. […]

T2 sequence (Q09472 1-111, one chain of several): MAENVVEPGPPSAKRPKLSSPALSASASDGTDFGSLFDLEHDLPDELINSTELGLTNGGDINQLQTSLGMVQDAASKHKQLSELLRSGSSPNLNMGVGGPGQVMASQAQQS
T1 sequence (P45481 whole entry): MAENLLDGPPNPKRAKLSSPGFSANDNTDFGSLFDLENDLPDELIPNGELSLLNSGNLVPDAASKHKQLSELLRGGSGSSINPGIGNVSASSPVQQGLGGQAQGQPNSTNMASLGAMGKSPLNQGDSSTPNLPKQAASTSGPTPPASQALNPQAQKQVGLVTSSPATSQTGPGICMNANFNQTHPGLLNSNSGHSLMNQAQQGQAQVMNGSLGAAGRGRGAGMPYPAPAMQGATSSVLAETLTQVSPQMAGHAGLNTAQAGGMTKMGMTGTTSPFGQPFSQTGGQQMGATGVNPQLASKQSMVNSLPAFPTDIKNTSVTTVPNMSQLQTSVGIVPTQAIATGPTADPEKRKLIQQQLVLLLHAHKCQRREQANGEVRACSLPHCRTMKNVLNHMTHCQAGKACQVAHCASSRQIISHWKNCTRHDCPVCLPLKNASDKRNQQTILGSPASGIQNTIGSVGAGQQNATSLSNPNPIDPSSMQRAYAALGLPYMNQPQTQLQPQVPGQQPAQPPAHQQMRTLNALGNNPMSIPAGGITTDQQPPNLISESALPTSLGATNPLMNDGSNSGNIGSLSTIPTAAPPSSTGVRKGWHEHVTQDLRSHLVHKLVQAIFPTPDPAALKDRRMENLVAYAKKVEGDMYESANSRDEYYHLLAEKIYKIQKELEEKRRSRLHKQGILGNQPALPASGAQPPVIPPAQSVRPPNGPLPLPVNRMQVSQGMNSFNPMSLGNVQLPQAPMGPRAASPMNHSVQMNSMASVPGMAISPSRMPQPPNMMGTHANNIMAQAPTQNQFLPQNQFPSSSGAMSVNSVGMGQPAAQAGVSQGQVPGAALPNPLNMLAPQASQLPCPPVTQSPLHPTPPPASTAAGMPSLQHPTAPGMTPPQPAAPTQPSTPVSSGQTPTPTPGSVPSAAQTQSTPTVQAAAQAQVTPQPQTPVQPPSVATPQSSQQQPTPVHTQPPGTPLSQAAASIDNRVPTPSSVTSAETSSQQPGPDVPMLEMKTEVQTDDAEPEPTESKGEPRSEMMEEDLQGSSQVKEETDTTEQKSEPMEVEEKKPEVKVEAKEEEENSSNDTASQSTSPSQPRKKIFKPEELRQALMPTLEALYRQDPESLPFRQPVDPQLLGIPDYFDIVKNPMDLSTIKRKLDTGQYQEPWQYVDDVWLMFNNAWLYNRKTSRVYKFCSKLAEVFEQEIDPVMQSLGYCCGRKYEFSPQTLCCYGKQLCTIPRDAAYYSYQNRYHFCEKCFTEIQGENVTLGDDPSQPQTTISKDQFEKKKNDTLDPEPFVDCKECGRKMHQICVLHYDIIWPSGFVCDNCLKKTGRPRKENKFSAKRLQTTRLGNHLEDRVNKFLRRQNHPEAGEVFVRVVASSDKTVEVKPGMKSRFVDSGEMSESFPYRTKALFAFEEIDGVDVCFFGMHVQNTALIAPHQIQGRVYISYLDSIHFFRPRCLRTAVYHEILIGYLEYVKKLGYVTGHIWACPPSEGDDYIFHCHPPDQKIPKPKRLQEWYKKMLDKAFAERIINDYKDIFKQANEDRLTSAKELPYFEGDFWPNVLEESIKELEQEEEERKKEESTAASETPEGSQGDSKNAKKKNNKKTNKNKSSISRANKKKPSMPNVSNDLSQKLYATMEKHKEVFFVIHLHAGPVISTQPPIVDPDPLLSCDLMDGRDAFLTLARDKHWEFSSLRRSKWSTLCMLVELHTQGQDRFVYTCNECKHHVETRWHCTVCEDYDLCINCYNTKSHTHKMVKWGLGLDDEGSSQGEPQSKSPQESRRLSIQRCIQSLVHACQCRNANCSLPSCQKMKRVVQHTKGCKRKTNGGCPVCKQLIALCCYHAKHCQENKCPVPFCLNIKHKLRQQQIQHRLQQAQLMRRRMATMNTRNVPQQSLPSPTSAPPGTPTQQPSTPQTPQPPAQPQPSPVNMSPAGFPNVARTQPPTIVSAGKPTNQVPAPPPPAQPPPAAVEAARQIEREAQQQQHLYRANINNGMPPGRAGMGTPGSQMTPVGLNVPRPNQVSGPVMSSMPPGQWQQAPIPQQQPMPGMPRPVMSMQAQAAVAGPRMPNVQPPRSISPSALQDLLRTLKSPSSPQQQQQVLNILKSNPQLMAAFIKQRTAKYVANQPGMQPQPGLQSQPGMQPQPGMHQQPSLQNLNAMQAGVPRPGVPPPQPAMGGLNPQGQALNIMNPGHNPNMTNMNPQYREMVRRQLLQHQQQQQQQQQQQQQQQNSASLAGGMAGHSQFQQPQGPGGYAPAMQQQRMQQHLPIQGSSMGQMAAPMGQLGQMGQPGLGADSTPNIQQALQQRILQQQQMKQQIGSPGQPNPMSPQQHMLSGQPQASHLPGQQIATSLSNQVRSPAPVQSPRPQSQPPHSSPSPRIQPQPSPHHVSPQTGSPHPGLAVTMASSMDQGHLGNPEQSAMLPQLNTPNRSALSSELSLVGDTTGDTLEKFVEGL

SMILES: O=C1C(Cc2ccc(O)cc2)N2C(=O)CCN(C(=O)NCc3ccccc3)C2CN1Cc1cccc2ccccc12 (centres unmarked) [COMPOUND 1]
- Competition of 14C-labeled COMPOUND 1 incorporation by cold COMPOUND 1 (full-length mouse CBP): competed away
- p300 fragments binding to immunoprecipitated β-catenin in presence of excess COMPOUND 1 (p300/β-catenin complex): had no effect
